Measured values published in patent US9758477B2, “Sulfamoylbenzamide derivatives as antiviral agents against HBV infection” (priority 2011, dated 2017).

How the values were obtained:
[1] = system: encapsidated pgRNA; test: Encapsidated pgRNA by Northern blot in AML12HBV10 cells; assay type: cell-based, Hepatitis B virus (HBV); settings: 2 days, FIG. 3 panel C, Bay41-4109 5 μM, AT-61 25 μM
Method: To obtain mechanistic insight of the compounds of present invention against HBV, AML12HBV10 cells cultured in the 12-well plates were treated with a series of concentrations of DVR-1, DVR-56 or DVR-23 for two days in the absence of tetracycline (Guo et al., 2007). As positive controls, the cells were also treated with Bay41-4109 (5 μM) or AT-61 (25 μM), the known HBV nucleocapsid assembly effectors that either bind to HBV core protein dimmer to misdirect its interaction and prevent capsid formation (Bay41-4109) (Deres et al., 2003: Stray and Zlotnick, 2006), or interact with a core assembly intermediate and promote the formation of empty capsids (AT-61) (Feld et al., 2007; Katen et al., King et al., 1998). The amounts of intracellular viral mRNA, encapsidated pgRNA, capsids and nucleocapsid-associated HBV DNA were analyzed with the methods detailed below.
Determination of encapsidated pgRNA: AML12HBV10 cells were lysed by addition of 600 μl of lysis buffer (50 mM Tris-HCl [pH 7.5], 1 mM EDTA, 150 mM NaCl, 1% NP-40) into each well of 12-well plates. The nuclei were removed by centrifugation at 5,000 g for 10 minutes. One-half of the sample was mixed with 6 U of micrococcal nuclease (Pharmacia) and 15 μl of 100 mM CaCl2 and incubated for 15 minutes at 37° C. to digest free nucleic acids. The reaction was stopped with 6 μl of 0.5 M EDTA, and capsids were precipitated by adding 125 μl of 35% polyethylene glycol 8000 in 1.75 M NaCl to the reaction and incubating in ice for 30 minutes, followed by centrifugation at 6,000 g for 10 minutes at 4° C. Pellets were re-suspended in 50 μl of TNE buffer (10 mM Tris-HCl [pH 8], 100 mM NaCl, 1 mM EDTA), pgRNA was extracted by the addition of 1 ml of Trizol reagent. The encapsidated pgRNA were electrophoresed through a 2.2 M formaldehyde-1% agarose gel, transferred to a nylon membrane, and immobilized by UV cross-linking (Stratagene). Hybridization was performed with an alpha-^32P-UTP labeled riboprobe specific for plus strand of HBV genome.

[2] = system: HBV; test: Antiviral efficacy in AML12HBV10 cells, HBV DNA by dot-blot hybridization; assay type: cell-based, Hepatitis B virus (HBV); settings: Hepatitis B virus
Method: The antiviral efficacy of the compounds of the disclosure, as presented in Tables 5, 6, 7, 8 and 9, were determined in AML12HBV10 cells. AML12HBV10 is an immortalized murine hepatocyte (AML12)-derived stable cell line that supports robust HBV replication in a tetracycline inducible manner (Xu et al.). The cells were seeded into 96 well plates at a density of 2×10^4 cells per well and cultured in DMEM/F12 media with 10% fetal bovine serum in the absence of tetracycline to allow pgRNA transcription and HBV DNA replication. One day after seeding, cells were left untreated or treated with a serial dilution of testing compounds, ranging from 50 μM to 0.39 μM, for 48 hours. Cells were then lysed by adding into each well of 100 μl lysis buffer containing 10 mM Tris-HCl (pH 7.6), 1 mM EDTA, 100 mM NaCl and 1% NP-40 and incubated at 37° C. for 30 minutes. Half amount (50 μl) of cell lysate from each well was combined with equal volume of denaturing solution containing 0.5N NaOH and 1.5M NaCl. After 5 minute incubation, 100 μl of neutralization solution (IM Tris-HCl, pH 7.4, 1.5M NaCl) was added into each well. The denatured cell lysates (totally 200 μl) were applied onto Nylon membrane using 96-well dot-blot manifold (Biorad). HBV DNA in the cell lysates were determined by dot-blot hybridization with alpha-^32P-UTP-labelled riboprobe specific for HBV minus strand DNA. The antiviral efficacy of a compound of the disclosure was expressed as the concentration that reduces the amount of HBV DNA by 50% (EC50).

[3] = system: HBV; test: Antiviral activity in HepDES19 cells, core-associated HBV DNA by Southern blot hybridization; assay type: cell-based; settings: Hepatitis B virus, 144 h, Table 10, HepDES19 cells, 6 days, unit inferred; for EC90: HBV DNA reduced by 90%; for EC50: Southern blot
Method: FIG. 2 and Table 10, in human hepatoma-derived cell lines: To further confirm the antiviral activity of the compounds of the disclosure against HBV in human hepatocyte-derived cells, HepDES19 cells, a human hepatoma cell line supporting HBV replication in a tetracycline inducible manner (Guo et al., 2007), seeded into 12-well plates at a density of 5×10^5 cells per well and cultured in DMEM/F12 media with 10% fetal bovine serum and 1 μg/ml tetracycline. Two days after seeding, the cells were mock-treated or treated with a serial dilution of compounds of the disclosure, ranging from 10 μM to 0.018 μM, for 6 days in the absence of tetracycline. Upon the completion of treatment, cells were lysed by adding into each well of the 12-well plates 0.5 ml of lysis buffer containing 10 mM Tris-HCl (pH 8.0), 1 mM EDTA, 1% NP40 and 2% sucrose and incubating at 37° C. for 10 minutes. Cell debris and nuclei were removed by centrifugation and the supernatant was mixed with 130 μl of 35% polyethylene glycol (PEG) 8000 containing 1.5 M NaCl. After 1 hour incubation in ice, viral nucleocapsids were pelleted by centrifugation at 6,000×g for 5 min at 4° C., followed by 1 hour digestion at 37° C. in 400 μl of digestion buffer containing 0.5 mg/ml pronase (Calbiochem), 0.5% SDS, 150 mM NaCl, 25 mM Tris-HCl (pH 8.0) and 10 mM EDTA. The digestion mixture was extracted twice with phenol and DNA was precipitated with ethanol, dissolved in TE buffer (10 mM Tris-HCl, pH 8.0; 0.1 mM EDTA). One half of the DNA sample from each well was resolved by electrophoresis into a 1.5% agarose gel. The gel was then subjected to denaturation in a solution containing 0.5 M NaOH and 1.5 M NaCl, followed by neutralization in a buffer containing 1 M Tris-HCl (pH7.4) and 1.5 M NaCl. DNA was then blotted onto Hybond-XL membrane (GE Health care) in 20×SSC buffer. The amounts of cytoplasmic HBV core-associated HBV DNA were determined by Southern blot hybridization and the antiviral efficacy of a compound was expressed as its concentration that reduce the amount of HBV DNA by 50% (EC50) or 90% (EC90).

[4] = AML12HBV10 cells, 48 hours, concentration reducing HBV DNA by 50%, read-out: EC50 (antiviral activity by dot blot hybridization)
[5] = Table 10, AML12HBV10 cells, unit inferred, read-out: AML12HBV10 EC50

O=C(Nc1ccc(F)c(F)c1)c1cc(S(=O)(=O)NC2CCCC2)ccc1F [DVR-56, 5-cyclopentylsulfamoyl-N-(3,4-difluoro-phenyl)-2-fluoro-benzamide]
level of encapsidated pgRNA [1]: dose-dependently reduced
EC50 [2, 4]: 0.39 µM
EC50 [2, 5]: 0.39 µM
EC90 [3]: 1.85 µM
EC50 [3]: 0.42 µM

CCC(C)NS(=O)(=O)c1ccc(F)c(C(=O)Nc2ccc(F)c(F)c2)c1 (stereo not shown) [DVR-23, 5-sec-butylsulfamoyl-N-(3,4-difluoro-phenyl)-2-fluoro-benzamide]
level of encapsidated pgRNA [1]: dose-dependently reduced
EC50 [2, 4]: 0.39 µM
EC50 [2, 5]: 0.39 µM
EC90 [3]: 0.86 µM
EC50 [3]: 0.28 µM
